From ChEMBL document CHEMBL2074571, “The mouse Bcrp1/Mxr/Abcp gene: amplification and overexpression in cell lines selected for resistance to topotecan, mitoxantrone, or doxorubicin” (Cancer Res, 1999)

Experiments:
Format in all cases: functional, cell-based
[1] = target: T1, Broad substrate specificity ATP-binding cassette transporter ABCG2 (Mus musculus, UniProt Q7TMS5); test: TP_TRANSPORTER: increase in mitoxantrone intracellular accumulation (Mitoxantrone: 20 uM, GF120918: 2 uM) in MEF3.8, M32 and T6400 cells; details: mef3.8;m32;t6400, 2 µM
T1 sequence (Q7TMS5 whole entry): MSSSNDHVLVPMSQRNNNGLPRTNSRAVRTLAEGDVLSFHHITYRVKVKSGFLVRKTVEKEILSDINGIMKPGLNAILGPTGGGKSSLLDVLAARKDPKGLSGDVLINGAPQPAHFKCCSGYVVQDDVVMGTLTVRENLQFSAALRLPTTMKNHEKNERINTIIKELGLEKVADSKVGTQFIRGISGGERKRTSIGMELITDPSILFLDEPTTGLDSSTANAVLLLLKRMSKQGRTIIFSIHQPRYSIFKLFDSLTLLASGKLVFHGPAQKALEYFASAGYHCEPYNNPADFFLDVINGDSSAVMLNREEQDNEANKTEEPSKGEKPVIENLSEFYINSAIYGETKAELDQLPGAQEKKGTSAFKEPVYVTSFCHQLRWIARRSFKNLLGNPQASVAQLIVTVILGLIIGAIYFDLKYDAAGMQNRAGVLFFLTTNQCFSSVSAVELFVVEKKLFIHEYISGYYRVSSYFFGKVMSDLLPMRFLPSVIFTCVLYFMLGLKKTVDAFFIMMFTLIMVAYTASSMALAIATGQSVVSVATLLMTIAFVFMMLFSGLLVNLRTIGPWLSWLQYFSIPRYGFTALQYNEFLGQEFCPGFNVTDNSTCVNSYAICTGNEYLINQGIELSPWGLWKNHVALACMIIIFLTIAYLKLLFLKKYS

[2] = target: T1, Broad substrate specificity ATP-binding cassette transporter ABCG2; test: TP_TRANSPORTER: increase in mitoxantrone intracellular accumulation (Mitoxantrone: 20 uM, GF120918: 2 uM) in KOT52 and D320 cells; details: kot52;d320, 2 µM
[3] = target: T1, Broad substrate specificity ATP-binding cassette transporter ABCG2; test: TP_TRANSPORTER: cell accumulation in KOT52 and D320 cells
[4] = target: T1, Broad substrate specificity ATP-binding cassette transporter ABCG2; test: TP_TRANSPORTER: cell accumulation in MEF3.8, M32 and T6400 cells; details: mef3.8;m32;t6400

| Structure (SMILES) | Activity [1] | Activity [2] | Activity [3] | Activity [4] |
| --- | --- | --- | --- | --- |
| COc1cc2c(cc1OC)CN(CCc1ccc(NC(=O)c3cccc4c(=O)c5cccc(OC)c5[nH]c34)cc1)CC2.Cl [ELACRIDAR HYDROCHLORIDE] | inhibitor [+] | inhibitor [+] | – | – |
| O=C1c2c(O)ccc(O)c2C(=O)c2c(NCCNCCO)ccc(NCCNCCO)c21 [MITOXANTRONE] | – | – | substrate [+] | substrate [+] |
